{
  "source": "ChEMBL document CHEMBL1250443",
  "about": "“Microarray-based method for monitoring yeast overexpression strains reveals small-molecule targets in TOR pathway” (Nat Chem Biol, 2006)",
  "key": {"Saccharomyces cerevisiae [1]": {"system": "Saccharomyces cerevisiae", "assay": "Decrease of YMD8 gene expression in wild-type Saccharomyces cerevisiae transformed with overexpression plasmids by microarray", "assay_type": "functional"}, "Saccharomyces cerevisiae [2]": {"system": "Saccharomyces cerevisiae", "assay": "Decrease of FET4 gene expression in wild-type Saccharomyces cerevisiae transformed with overexpression plasmids by microarray", "assay_type": "functional"}, "Saccharomyces cerevisiae [3]": {"system": "Saccharomyces cerevisiae", "assay": "Increase of YRR1 gene expression in wild-type Saccharomyces cerevisiae transformed with overexpression plasmids by microarray", "assay_type": "functional"}, "Saccharomyces cerevisiae [4]": {"system": "Saccharomyces cerevisiae", "assay": "Increase of MAM1 gene expression in wild-type Saccharomyces cerevisiae transformed with overexpression plasmids by microarray", "assay_type": "functional"}, "Saccharomyces cerevisiae [5]": {"system": "Saccharomyces cerevisiae", "assay": "Increase of MDL1 gene expression in wild-type Saccharomyces cerevisiae transformed with overexpression plasmids by microarray", "assay_type": "functional"}, "Saccharomyces cerevisiae [6]": {"system": "Saccharomyces cerevisiae", "assay": "Increase of GUF1 gene expression in wild-type Saccharomyces cerevisiae transformed with overexpression plasmids by microarray", "assay_type": "functional"}, "Saccharomyces cerevisiae [7]": {"system": "Saccharomyces cerevisiae", "assay": "Increase of MRPS28 gene expression in wild-type Saccharomyces cerevisiae transformed with overexpression plasmids by microarray", "assay_type": "functional"}, "Saccharomyces cerevisiae [8]": {"system": "Saccharomyces cerevisiae", "assay": "Increase of YDR514C gene expression in wild-type Saccharomyces cerevisiae transformed with overexpression plasmids by microarray", "assay_type": "functional"}, "Saccharomyces cerevisiae [9]": {"system": "Saccharomyces cerevisiae", "assay": "Increase of HMI1 gene expression in wild-type Saccharomyces cerevisiae transformed with overexpression plasmids by microarray", "assay_type": "functional"}, "[10]": {"biological_target": "T1, Translation factor GUF1, mitochondrial (Saccharomyces cerevisiae S288c, UniProt P46943)", "T1 sequence (P46943 whole entry)": "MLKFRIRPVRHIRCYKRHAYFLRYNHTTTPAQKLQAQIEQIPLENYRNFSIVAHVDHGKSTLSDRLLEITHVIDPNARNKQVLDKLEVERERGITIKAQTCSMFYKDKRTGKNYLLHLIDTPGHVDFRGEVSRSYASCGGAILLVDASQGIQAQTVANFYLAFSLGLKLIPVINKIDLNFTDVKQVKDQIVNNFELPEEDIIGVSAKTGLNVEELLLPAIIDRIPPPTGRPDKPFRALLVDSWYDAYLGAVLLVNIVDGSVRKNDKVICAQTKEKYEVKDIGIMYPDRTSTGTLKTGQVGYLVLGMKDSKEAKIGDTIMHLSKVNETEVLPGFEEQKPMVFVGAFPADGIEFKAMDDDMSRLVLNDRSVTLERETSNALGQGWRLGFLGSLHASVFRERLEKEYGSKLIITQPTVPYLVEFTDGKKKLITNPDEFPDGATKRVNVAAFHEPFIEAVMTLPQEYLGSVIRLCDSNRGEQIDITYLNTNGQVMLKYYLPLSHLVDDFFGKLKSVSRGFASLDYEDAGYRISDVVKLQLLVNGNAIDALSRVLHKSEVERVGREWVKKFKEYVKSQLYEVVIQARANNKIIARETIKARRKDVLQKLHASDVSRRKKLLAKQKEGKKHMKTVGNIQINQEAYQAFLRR", "assay": "Inhibition of yeast Guf1"}, "Saccharomyces cerevisiae [11]": {"system": "Saccharomyces cerevisiae", "assay": "Increase of FMP38 gene expression in wild-type Saccharomyces cerevisiae transformed with overexpression plasmids by microarray", "assay_type": "functional"}, "Saccharomyces cerevisiae [12]": {"system": "Saccharomyces cerevisiae", "assay": "Decrease of YJL051W gene expression in wild-type Saccharomyces cerevisiae transformed with overexpression plasmids by microarray", "assay_type": "functional"}, "Saccharomyces cerevisiae [13]": {"system": "Saccharomyces cerevisiae", "assay": "Increase of SUV3 gene expression in wild-type Saccharomyces cerevisiae transformed with overexpression plasmids by microarray", "assay_type": "functional"}, "Saccharomyces cerevisiae [14]": {"system": "Saccharomyces cerevisiae", "assay": "Decrease of YDR222W gene expression in wild-type Saccharomyces cerevisiae transformed with overexpression plasmids by microarray", "assay_type": "functional"}, "Saccharomyces cerevisiae [15]": {"system": "Saccharomyces cerevisiae", "assay": "Decrease of HOS1 gene expression in wild-type Saccharomyces cerevisiae transformed with overexpression plasmids by microarray", "assay_type": "functional"}, "Saccharomyces cerevisiae [16]": {"system": "Saccharomyces cerevisiae", "assay": "Decrease of YKR75C gene expression in wild-type Saccharomyces cerevisiae transformed with overexpression plasmids by microarray", "assay_type": "functional"}, "Saccharomyces cerevisiae [17]": {"system": "Saccharomyces cerevisiae", "assay": "Decrease of SGN1 gene expression in wild-type Saccharomyces cerevisiae transformed with overexpression plasmids by microarray", "assay_type": "functional"}, "Saccharomyces cerevisiae [18]": {"system": "Saccharomyces cerevisiae", "assay": "Decrease of RIM11 gene expression in wild-type Saccharomyces cerevisiae transformed with overexpression plasmids by microarray", "assay_type": "functional"}, "Saccharomyces cerevisiae [19]": {"system": "Saccharomyces cerevisiae", "assay": "Increase of PET111 gene expression in wild-type Saccharomyces cerevisiae transformed with overexpression plasmids by microarray", "assay_type": "functional"}},
  "data": [
    {"smiles": "O=C1C(Nc2ccccc2)=CC(=O)c2ncccc21", "values": [
      {"measurement": "fold change (FC)", "setting": "Saccharomyces cerevisiae [1]", "result": -2},
      {"measurement": "fold change (FC)", "setting": "Saccharomyces cerevisiae [2]", "result": -4.3},
      {"measurement": "fold change (FC)", "setting": "Saccharomyces cerevisiae [3]", "result": 2.8},
      {"measurement": "fold change (FC)", "setting": "Saccharomyces cerevisiae [4]", "result": 2.1},
      {"measurement": "fold change (FC)", "setting": "Saccharomyces cerevisiae [5]", "result": 2.2},
      {"measurement": "fold change (FC)", "setting": "Saccharomyces cerevisiae [6]", "result": 5},
      {"measurement": "fold change (FC)", "setting": "Saccharomyces cerevisiae [7]", "result": 2.1},
      {"measurement": "fold change (FC)", "setting": "Saccharomyces cerevisiae [8]", "result": 2.7},
      {"measurement": "fold change (FC)", "setting": "Saccharomyces cerevisiae [9]", "result": 2.9},
      {"measurement": "IC50", "setting": "[10]", "result": 300, "unit": "µM"},
      {"measurement": "fold change (FC)", "setting": "Saccharomyces cerevisiae [11]", "result": 3.1},
      {"measurement": "fold change (FC)", "setting": "Saccharomyces cerevisiae [12]", "result": -2.1},
      {"measurement": "fold change (FC)", "setting": "Saccharomyces cerevisiae [13]", "result": 2.4},
      {"measurement": "fold change (FC)", "setting": "Saccharomyces cerevisiae [14]", "result": -2.4},
      {"measurement": "fold change (FC)", "setting": "Saccharomyces cerevisiae [15]", "result": -2.4},
      {"measurement": "fold change (FC)", "setting": "Saccharomyces cerevisiae [16]", "result": -2.1},
      {"measurement": "fold change (FC)", "setting": "Saccharomyces cerevisiae [17]", "result": -2.1},
      {"measurement": "fold change (FC)", "setting": "Saccharomyces cerevisiae [18]", "result": -3.3},
      {"measurement": "fold change (FC)", "setting": "Saccharomyces cerevisiae [19]", "result": 2.3}
    ]}
  ]
}
